The target in assay [1] is DNA topoisomerase 2-alpha (Homo sapiens, UniProt P11388). Description: Inhibition of human DNA topoisomerase 2alpha-mediated decatenation of kinetoplast DNA after 60 mins by agarose gel electrophoresis.
Assay [2] in a line: Binding affinity to 5'-dabcyl/3'-fluorescein labeled duplex DNA (unknown origin) assessed as change in melting temperature at 10 uM by fluorescence assay.
The next assay is filed under the species Homo sapiens. Description: Binding affinity to 5'-dabcyl/3'-fluorescein labeled human telomeric sequence G-quadruplex DNA assessed as change in melting temperature at 10 uM by fluorescence assay.
The nature of assay [3]: Binding affinity to 5'-dabcyl/3'-fluorescein labeled cKit G-quadruplex DNA (unknown origin) assessed as change in melting temperature at 10 uM by fluorescence assay.
The nature of assay [4]: Binding affinity to 5'-dabcyl/3'-fluorescein labeled pu27 G-quadruplex DNA (unknown origin) assessed as change in melting temperature at 10 uM by fluorescence assay.
Assay [5] in a line: Cytotoxicity against human HeLa cells after 72 hrs by MTT assay. Type of assay: functional, cell-based. (Formazan colour is commonly taken as a measure of viable cells.)
The nature of assay [6]: Inhibition of Escherichia coli DNA topoisomerase 4 decatenation activity using kinetoplast DNA as substrate after 60 mins by agarose gel electrophoresis.
Assay [7] in a line: Cytotoxicity against human MCF7 cells after 72 hrs by MTT assay. Particulars: MCF7, 72 h. Type of assay: functional, cell-based.
Assay [8] can be described thus: Inhibition of thiazole orange binding to pu27 G-quadruplex DNA (unknown origin) by fluorescence assay.
Assay [9] can be described thus: Inhibition of thiazole orange binding to cKit G-quadruplex DNA (unknown origin) by fluorescence assay.
Assay [10] is described as follows: Inhibition of thiazole orange binding to duplex DNA (unknown origin) by fluorescence assay.
Assay [11] is described as follows: Inhibition of thiazole orange binding to human telomeric sequence G-quadruplex DNA by fluorescence assay.
The test system of the next assay is Escherichia coli. Kind of assay: Induction of Escherichia coli pBR322 DNA unwinding at 0.1 to 10 uM after 1 hr by agarose gel electrophoresis.

pEC50, pIC50: −log10 of the molar value. Calls of active or inactive are those of the source. The calls are words filed in the database; no cut-off is given here. Bounds are passed on as bounds.

Sequence of DNA topoisomerase 2-alpha (P11388 whole entry): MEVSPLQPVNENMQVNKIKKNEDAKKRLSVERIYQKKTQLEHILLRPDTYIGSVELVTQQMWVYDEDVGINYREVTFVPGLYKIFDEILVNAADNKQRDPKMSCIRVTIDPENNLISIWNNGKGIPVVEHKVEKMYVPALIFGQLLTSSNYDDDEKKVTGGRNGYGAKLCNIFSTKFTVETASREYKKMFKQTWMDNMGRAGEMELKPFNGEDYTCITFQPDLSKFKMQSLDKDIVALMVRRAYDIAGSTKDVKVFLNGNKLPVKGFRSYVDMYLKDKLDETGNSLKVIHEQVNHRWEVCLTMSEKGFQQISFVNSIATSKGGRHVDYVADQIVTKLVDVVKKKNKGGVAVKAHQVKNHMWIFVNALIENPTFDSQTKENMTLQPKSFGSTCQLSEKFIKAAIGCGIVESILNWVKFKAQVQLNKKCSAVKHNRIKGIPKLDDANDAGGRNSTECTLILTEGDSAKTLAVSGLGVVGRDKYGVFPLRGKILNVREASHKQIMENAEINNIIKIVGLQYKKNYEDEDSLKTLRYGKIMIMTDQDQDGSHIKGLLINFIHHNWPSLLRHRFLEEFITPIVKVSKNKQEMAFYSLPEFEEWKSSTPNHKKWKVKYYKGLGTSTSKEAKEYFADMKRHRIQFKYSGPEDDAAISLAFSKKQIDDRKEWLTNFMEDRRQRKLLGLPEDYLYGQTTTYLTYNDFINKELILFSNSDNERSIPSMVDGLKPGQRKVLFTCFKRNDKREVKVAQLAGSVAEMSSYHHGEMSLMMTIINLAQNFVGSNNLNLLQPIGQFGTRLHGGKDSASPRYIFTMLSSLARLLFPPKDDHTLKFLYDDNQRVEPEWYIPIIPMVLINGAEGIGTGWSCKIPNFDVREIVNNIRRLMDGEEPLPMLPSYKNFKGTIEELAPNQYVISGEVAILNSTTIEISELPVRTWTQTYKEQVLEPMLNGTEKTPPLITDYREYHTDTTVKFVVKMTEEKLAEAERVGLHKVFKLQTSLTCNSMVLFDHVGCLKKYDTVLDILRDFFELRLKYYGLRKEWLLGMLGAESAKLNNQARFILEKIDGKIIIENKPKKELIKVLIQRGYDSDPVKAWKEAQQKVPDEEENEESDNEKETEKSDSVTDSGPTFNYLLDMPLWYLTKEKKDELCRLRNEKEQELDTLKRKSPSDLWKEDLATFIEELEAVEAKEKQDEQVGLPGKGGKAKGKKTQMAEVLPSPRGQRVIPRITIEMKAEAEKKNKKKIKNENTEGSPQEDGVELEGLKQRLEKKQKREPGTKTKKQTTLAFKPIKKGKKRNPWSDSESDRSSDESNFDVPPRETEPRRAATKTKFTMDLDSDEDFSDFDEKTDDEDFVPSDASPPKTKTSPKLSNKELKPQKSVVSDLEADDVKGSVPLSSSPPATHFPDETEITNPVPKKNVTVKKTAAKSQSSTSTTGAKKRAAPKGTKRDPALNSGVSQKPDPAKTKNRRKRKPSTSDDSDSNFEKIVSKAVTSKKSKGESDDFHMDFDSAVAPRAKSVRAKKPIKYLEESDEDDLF

As to `CCN(CC)CCOc1nc2ccccc2c2nc3ccccc3nc12`, the pIC50 (commonly −log10 of the IC50, conventionally taken in molar units) in assay [1] was below 4.00; in [5] it was 4.60. For the same compound, the ΔTm (usually the change in melting temperature against a reference sample) in assay [2] was determined as 0.1 °C; in the assay listed under Homo sapiens, 1 °C; in [3] it was 2.5 °C; in assay [4], 0.8 °C.
On to `CN(C)CCCOc1nc2ccccc2c2nc3ccccc3nc12`, for which the figures for the pIC50 in assay [1] and in assay [5] were 4.62 and 5.21, respectively. The shift in melting temperature (ΔTm) in assay [2] was 0.5 °C; in the assay listed under Homo sapiens, 1.4 °C; in [3], 3.8 °C; in assay [4], 4.1 °C.
As to `c1ccc2nc3c(nc2c1)c(NCCN1CCCCC1)nc1ccccc13`, the negative-log IC50 (pIC50) was 4.71 in assay [1] and 4.99 in assay [5]. In addition, the thermal shift (ΔTm) in [2] stood at 1.8 °C; in the assay filed under Homo sapiens, 0.4 °C; in assay [3], 2 °C; in [4], 1.4 °C.
As to `CN(C)CCCn1c(=O)c2nc3ccccc3nc2c2ccccc21`, the negative logarithm of the IC50 (pIC50) in [1] is below 4.00; in [6], below 4.00; in assay [5], 5.69; in assay [7], 5.22. Moreover, the ΔTm in assay [2] amounted to 0.4 °C; in the assay filed under Homo sapiens it was 4.7 °C; in assay [3], 7.8 °C; in assay [4], 5.5 °C. The pEC50 (as a rule, −log10 of the EC50, conventionally taken in molar units) in assay [8] is 5.88; in [9] it was 5.45; in assay [10] it was 4.96.
On to `CN(C)CCCCNc1nc2ccccc2c2nc3ccccc3nc12`, for which the negative logarithm of the IC50 (pIC50) in assay [1] is 5.29; in assay [6] it was below 4.00; in [5] it was 5.63; in assay [7], 5.80. Also, the ΔTm in assay [2] turned out to be 4.2 °C; in the assay listed under Homo sapiens it was 9.8 °C; in [3], 11.6 °C; in [4], 9.4 °C. Further, the negative-log EC50 (pEC50) in assay [11] is 5.35; in [8] it was 6.24; in [9] it was 6.08; in [10], 5.90.
With `COc1cccc2c1C(=O)c1c(O)c3c(c(O)c1C2=O)C[C@@](O)(C(=O)CO)C[C@@H]3O[C@H]1C[C@H](N)[C@H](O)[C@H](C)O1` [DOXORUBICIN], in assay [1], the pIC50 was 5.52. The result in the assay on Escherichia coli was Active.
Consider `CO[C@@H]1[C@@H](OC(N)=O)[C@@H](O)[C@H](Oc2ccc3c(O)c(NC(=O)c4ccc(O)c(CC=C(C)C)c4)c(=O)oc3c2C)OC1(C)C` [NOVOBIOCIN], for which the pIC50 in [6] was 4.20.
As to `CN(CCCCCNc1nc2ccccc2c2nc3ccccc3nc12)Cc1ccccc1`, the pIC50 in [1], in assay [6], in [5] and in assay [7] was below 4.00 each time. Further, the ΔTm was determined as 0 °C in assay [2], 3.1 °C in the assay listed under Homo sapiens, 1.5 °C in assay [3] and 5.9 °C in [4].
As for `CN(C)CCCCn1c(=O)c2nc3ccccc3nc2c2ccccc21`, the pIC50 in assay [1] is 4.46; in assay [5] it was 4.95. Moreover, the thermal shift (ΔTm) in assay [2] stood at 0.9 °C; in the assay listed under Homo sapiens, 4.8 °C; in assay [3] it was 7.4 °C; in assay [4] it was 6.4 °C.
In the case of `CCN(CC)CCCNc1nc2ccccc2c2nc3ccccc3nc12`, the results for the pIC50 in assay [1] and in [5] were 4.86 and 5.19, respectively. Also, the shift in melting temperature (ΔTm) in [2] is 1.5 °C; in the assay listed under Homo sapiens it was 2 °C; in assay [3], 4.7 °C; in [4], 5.9 °C.
In the case of `O=c1c2nc3ccccc3nc2c2ccccc2n1CCN1CCOCC1`, the pIC50 in [1], in [6], in assay [5] and in assay [7] was below 4.00 throughout. For the same compound, the ΔTm in assay [2] amounted to 0 °C; in the assay filed under Homo sapiens it was 0.8 °C; in assay [3], 0 °C; in assay [4], 0 °C.
Regarding `CN(C)CCNc1nc2ccccc2c2nc3ccccc3nc12`, the pIC50 in [1] was 4.71; in [6] it was below 4.00; in assay [5], 5.53; in [7] it was 5.63. Further, the shift in melting temperature (ΔTm) in assay [2] was determined as 4.3 °C; in the assay filed under Homo sapiens it was 8.2 °C; in [3], 9.7 °C; in assay [4] it was 4 °C.
For the compound `Cc1cc2c(=O)n(CCN(C)C)c3ccccc3c2nn1`, the pIC50 in assay [1] is below 4.00; in assay [5] it was 4.39. Besides, the ΔTm in assay [2] stood at 0.2 °C; in the assay filed under Homo sapiens, 1.2 °C; in assay [3], 2.7 °C; in assay [4] it was 0.6 °C.
For the compound `c1ccc2nc3c(nc2c1)c(NCCN1CCOCC1)nc1ccccc13`, the pIC50 in [1] is 4.00; in assay [6], below 4.00; in assay [5], below 4.00; in assay [7], below 4.00. Also, the ΔTm (in assay [2]; in the assay listed under Homo sapiens; in [3]; in [4]) was 0 °C each time.
As for `CCN(CC)CCNc1nc2ccccc2c2nc3ccccc3nc12`, the pIC50 in assay [1] is below 4.00; in assay [5], 5.16. Also, the shift in melting temperature (ΔTm) in [2] turned out to be 1.1 °C; in the assay filed under Homo sapiens, 1.1 °C; in [3] it was 5.8 °C; in assay [4], 3.8 °C.
As to `O=C1c2ccccc2C(=O)c2c(NCCNCCO)ccc(NCCNCCO)c21` [AMETANTRONE], the results for the pIC50 in [5] and in [7] were 6.05 and 6.29, respectively.
For `Cc1cc2c(=O)n(CCCN(C)C)c3ccccc3c2nn1`, the pIC50 in assay [1] was below 4.00; in [5] it was 4.31. Moreover, the thermal shift (ΔTm) in assay [2] was 0.1 °C; in the assay filed under Homo sapiens, 1.7 °C; in assay [3], 1.8 °C; in [4] it was 2.1 °C.
For `CCN(CC)CCn1c(=O)c2nc3ccccc3nc2c2ccccc21`, the figures for the pIC50 in assay [1] and in assay [5] were 4.06 and 5.07, respectively. Also, the ΔTm amounted to 0.4 °C in assay [2], 2.3 °C in the assay listed under Homo sapiens, 4.5 °C in assay [3] and 3.5 °C in assay [4].
Take `CN(C)CCCNc1nc2ccccc2c2nc3ccccc3nc12`: the pIC50 was 4.95 in assay [1], below 4.00 in assay [6], 5.27 in [5] and 5.53 in assay [7]. For the same compound, the shift in melting temperature (ΔTm) is 2.2 °C in assay [2], 6.1 °C in the assay filed under Homo sapiens, 6.9 °C in assay [3] and 5.9 °C in [4].
Regarding `O=c1[nH]c2ccccc2c2nc3ccccc3nc12`, the negative-log IC50 (pIC50) in assay [1] was below 4.00; in [6], below 4.00; in assay [5] it was 4.70; in [7], 4.48. The ΔTm (in assay [2]; in the assay filed under Homo sapiens; in [3]; in assay [4]) was 0 °C throughout.
Take `CN(C)CCSc1nc2ccccc2c2nc3ccccc3nc12`: the pIC50 in assay [1] is 4.75; in [6], below 4.00; in [5], 5.22; in [7] it was 5.62. Besides, the shift in melting temperature (ΔTm) came out at 4.2 °C in assay [2], 10.6 °C in the assay listed under Homo sapiens, 11.2 °C in [3] and 8.8 °C in assay [4].
Consider `CN(C)CCn1c(=O)c2nc3ccccc3nc2c2ccccc21`, for which the negative logarithm of the IC50 (pIC50) in assay [1] was 4.45; in [5] it was 5.14. In addition, the thermal shift (ΔTm) worked out at 0.3 °C in assay [2], 2.7 °C in the assay listed under Homo sapiens, 4.8 °C in assay [3] and 4.1 °C in assay [4].

Source of the values: ChEMBL document CHEMBL3875142, “Quinolino[3,4-b]quinoxalines and pyridazino[4,3-c]quinoline derivatives: Synthesis, inhibition of topoisomerase IIα, G-quadruplex binding and cytotoxic properties” (Eur J Med Chem, 2016).
